From patent US7202216B2 (The Board of Trustees of the Leland Stanford Junior …, priority 2002, dated 2007)
Where no end group is shown, it is not given here.

How the values were obtained:
[1] = molecular target: T1, tissue transglutaminase (tTGase) (Homo sapiens, UniProt P21980); settings: vs natural substrate fibrinogen; cited from earlier work
T1 sequence (P21980 1-687): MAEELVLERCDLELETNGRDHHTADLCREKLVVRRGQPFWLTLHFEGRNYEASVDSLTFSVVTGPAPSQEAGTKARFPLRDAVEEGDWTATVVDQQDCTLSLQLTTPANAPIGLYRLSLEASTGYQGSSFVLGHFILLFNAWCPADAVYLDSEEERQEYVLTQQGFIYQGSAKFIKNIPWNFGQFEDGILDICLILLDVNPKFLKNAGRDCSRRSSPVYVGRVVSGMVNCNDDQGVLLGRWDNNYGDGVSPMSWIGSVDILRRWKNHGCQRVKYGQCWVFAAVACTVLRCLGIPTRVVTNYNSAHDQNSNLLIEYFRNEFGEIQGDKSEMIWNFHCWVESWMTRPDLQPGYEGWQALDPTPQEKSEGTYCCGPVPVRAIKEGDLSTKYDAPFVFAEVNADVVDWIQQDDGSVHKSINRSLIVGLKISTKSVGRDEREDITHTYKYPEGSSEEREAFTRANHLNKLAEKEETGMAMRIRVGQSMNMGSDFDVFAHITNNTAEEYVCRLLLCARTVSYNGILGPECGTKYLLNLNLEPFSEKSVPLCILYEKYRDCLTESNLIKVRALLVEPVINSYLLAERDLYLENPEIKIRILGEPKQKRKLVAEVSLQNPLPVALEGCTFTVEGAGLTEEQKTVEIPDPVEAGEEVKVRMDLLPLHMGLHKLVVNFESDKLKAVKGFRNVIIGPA

[2] = Amount of peptides digested after 15 hours (Table 1, samples H1P0-H5P0); assay type: in vitro ADME
[3] = BBM fractions prepared from rat small intestinal mucosa
[4] = test system: small intestinal brush-border membrane (BBM) enzymes; assay: Brush-border membrane (BBM) digestion of gliadin peptides; settings: 12 ng/μl BBM protein, rat small intestinal mucosa
[5] = test system: gastric and pancreatic proteases (pepsin, trypsin, chymotrypsin, elastase, carboxypeptidase)

| Sequence | specificity of tTGase relative to its target peptide sequence in fibrinogen [1] [fold] | Amount of Peptides Digested after 15 hours ([2]; sample H1P0) [%] | Amount of Peptides Digested after 15 hours ([2]; sample H2P0) [%] | Amount of Peptides Digested after 15 hours ([2]; sample H3P0) [%] | Amount of Peptides Digested after 15 hours ([2]; sample H4P0) [%] | Amount of Peptides Digested after 15 hours ([2]; sample H5P0) [%] | not cleaved [3] | half-life of digestion [4] [h] | stability on prolonged exposure to proteases [5] |
| --- | --- | --- | --- | --- | --- | --- | --- | --- | --- |
| PQPQLPYPQPQLPY (listed as Triticum aestivum) [α-gliadin derived tTGase substrate peptide] | 5 |  |  |  |  |  |  |  |  |
| QLQPFPQPQLPY [Control A] |  | >90 | >61 | >87 | >96 | >96 |  |  |  |
| WQIPEQSR [Control B] |  | >90 | >85 | >95 | >95 | >95 |  |  |  |
| LQLQPFPQPQLPYPQPQLPYPQPQLPYPQPQPF |  |  |  |  |  |  | half-life of digestion >20 h; remains intact |  |  |
| LQLQPFPQPQLPYPQPQLPYPQPQLPYPQPQPF [33-mer] |  | <20 | <20 | <20 | <20 | <20 |  | > 20 | remained intact |
